Assay results reported in patent publication US20260364101A1, “OLEUROPEIN IN THE MANAGEMENT OF CANCER” (FUNDACIÓN MIGUEL SERVET, priority 2023, published 2026).
Entries after “also recorded” stand apart in the source; their conditions may differ.

Tests used:
CD4 T cells = experiment: mixed lymphocyte reaction (MLR) with TAMs as stimulator cells (FIG. 1c,d); type: cell-based, mouse; settings: treated TAMs as stimulators; 5 days
Experimental: MLR were carried out following standard procedures. Briefly, 100,000 MDSCs or TAMs from C57BL/6 mice were co-cultured in 96-well plates with 100,000 lymphocytes from BALB/c mice. Co-cultured cells were treated with 50 µM oleuropein and compared with control vehicle. After 5 days, T-lymphocyte activation, differentiation and proliferation were assessed by flow cytometry. T-cell activation and proliferation markers (Ki-67) and pro-inflammatory cytokine production (IL-2 and IFNγ) were evaluated by flow cytometry in CD4 and CD8 T cells as described before.
Surface and intracellular staining were carried out as described before with the following fluorochrome-conjugated antibody clones: AF488 anti-CD49d (R1-2), PE anti-CD4 (GK1.5), APCanti-CD8(53-6.7), brilliant Violet 510™ anti-I-A/I-E (M5/114.15.2,PE/Cyanine7anti-Ly-6G (1A8), and APC anti-CD80 (16-10A1) (Biolegend), FITC anti-IL-12 (C15.6) and BV421 anti-IL-2 (JES6-5H4) (BD Bioscience), APC-Vio® 770 anti-Ly-6C (REA796), PE REAfinity™ anti-F4/80 (REA126), and APC anti-CD68 (REA886) (Miltenyi), PerCP-Cyanine5.5 Anti-Human/Mouse CD11b (M1/70) (Tonbo), and AF488 anti-IFNγ (Clone XMG1.2) (BD Pharmigen). […]

TAMs = experiment: quantitative proteomics and Ingenuity Pathway Analysis of TAM; type: cell-based, mouse
Experimental: (§1) Immunosuppressive myeloid cell subsets resembling tumor-infiltrating subsets (g-MDSCs, m-MDSCs and TAMs) were differentiated from mouse bone marrow following published procedures using conditioning medium produced by LLC tumor cells stably expressing GMCSF and MCSF cells. g- and m-MDSCs were purified using the myeloid-derived suppressor cell isolation kit (Miltenyi Biotec, Bergisch, Germany) according to manufacturer's recommendations. MDSCs and TAMs were seeded with 500 nM BML-275 or 50 μM oleuropein and incubated for seven days.
(§2) A unique proteomic experiment was carried out with five biological replicates per sample (m-MDSC, g-MDSC and TAM). Cells were homogenized in a lysis buffer containing 7 M urea, 2 M thiourea 50 mM DTT. The homogenates were spun down at 14000 g for 1 h at 15 °C. Before proteomic analysis, protein extracts were diluted with Laemmli sample buffer in 100 μL and loaded into a 0.75 mm thick polyacrylamide gel with a 4% stacking gel casted over a 12.5% resolving gel. The run was stopped as soon as the front entered 3 mm into the resolving gel so that the whole proteome became concentrated in the stacking/resolving gel interface. Bands were stained with Coomassie Brilliant Blue, excised from the gel and protein enzymatic cleavage was carried out with trypsin (Promega; 1:20, w/w) at 37 °C for 16 h as previously described. Purification and concentration of peptides was performed using C18 Zip Tip Solid Phase Extraction (Millipore).
(§3) Peptide mixtures were separated by reverse phase chromatography using an UltiMate 3000 UHLPC System (Thermo Scientific) fitted with an Aurora packed emitter column (lonopticks, 25 cm×75 μm ID, 1.6 μm C18). Samples were first loaded for desalting and concentration into an Acclaim PepMap column (ThermoFisher, 0.5 cm×300 μm ID, 5 μm C18) packed with the same chemistry as the separating column. Mobile phases were 100% water 0.1% formic acid (FA) (buffer A) and 100% Acetonitrile 0.1% FA (buffer B). Column gradient was developed in a 120 min two step gradient from 5% B to 20% B in 90 min and 20% B to 32% B in 30 min. Column was equilibrated in 95% B for 10 min and 5% B for 20 min. During the whole process, the precolumn was in line with the column and the flow maintained all along the gradient at 300 nl/min. The column temperature was maintained at 40 °C using an integrated column oven (PRSO-V2, Sonation, Biberach, Germany) and interfaced online with the Orbitrap Exploris 480 MS. Spray voltage were set to 2 kV, funnel RF level at 40, and heated capillary temperature at 300 °C. For DDA experiments full MS resolutions were set to […] at m/z 200 and full MS AGC target was set to Standard with an IT mode Auto. Mass range was set to 375-1500. AGC target value for fragment spectra was set to Standard with a resolution of 15,000 and 3 seconds for cycle time. The intensity threshold was kept at 8E3. Isolation width was set at 1.4 m/z. Normalized collision energy was set at 30%. All data were acquired in centroid mode using positive polarity and peptide match was set to off, and isotope exclusion was on.
(§4) Raw files were processed with MaxQuant v1.6.17.0 using the integrated Andromeda Search engine. All data were searched against a target/decoy version of the mouse Uniprot Reference Proteome with March 2021 release. First search peptide tolerance was set to 20 ppm, main search peptide tolerance was set to 4.5 ppm. Fragment mass tolerance was set to 20 ppm. Trypsin was specified as enzyme, […] carbamidomethylation of cysteine was specified as fixed modification and peptide N-terminal acetylation, oxidation of methionine, deamidation of asparagine and glutamine and pyro-glutamate formation from glutamine and glutamate were considered variable modifications with a total of two variable modifications per peptide. […]

[1] = to elenolic acid and glucose; cited from earlier work
MDSCs = experiment: morphology of ex vivo MDSC cultures, phase contrast micrographs (FIG. 2a); type: cell-based, mouse; settings: MDSCs treated with oleuropein
Experimental: as §1

TAMCs = experiment: quantitative proteomics and Ingenuity Pathway Analysis of TAMCs (FIG. 2); type: cell-based, mouse
Experimental: as §1, §2, §3, §4

[2] = IPA, TAMCs, listed as Oleuropein

C/C=C1/[C@H](O[C@@H]2O[C@H](CO)[C@@H](O)[C@H](O)[C@H]2O)OC=C(C(=O)OC)[C@H]1CC(=O)OCCc1ccc(O)c(O)c1 [oleuropein]
CD4 T cell stimulation assessed by IFNγ and IL-2 production (CD4 T cells): potently stimulated
activated macrophages and pro-inflammatory activities of macrophages (TAMs): enhances
BAG2 signalling (TAMs; IPA): downregulated
EIF2 signalling (TAMs; IPA): upregulated
Flt3 signalling (TAMs; IPA): upregulated
For-mediated (Fcr-mediated) phagocytosis signalling (TAMs; IPA): upregulation
Hif1a signalling (TAMs; IPA): downregulated
fmlp signalling (TAMs; IPA): upregulated
immunosuppressive markers (TAMs; IPA): downregulation
mTOR signalling (TAMs; IPA): downregulated
For-mediated (Fcr-mediated) phagocytosis signalling (TAMs; IPA, listed as Oleuropein): upregulated
decomposition by acid or enzymic hydrolysis [1]: decomposes easily
morphology (MDSCs): acquired a dendritic cell-like morphology
CD40 (TAMCs; IPA, TAMCs): down-regulated
Fatty acid β-oxidation I signalling (TAMCs; IPA, TAMCs): up-regulated; also recorded: Regulated expression
IL-9 signalling (TAMCs; IPA, TAMCs): down-regulated
LXR/RXR signalling (TAMCs; IPA, TAMCs): up-regulated; also recorded: Regulated expression
RAN signalling (TAMCs; IPA, TAMCs): down-regulated
TREM1 (TAMCs; IPA, TAMCs): inhibition; also recorded: inhibited
cyclic adenosine monophosphate (cAMP) pathway (TAMCs; IPA, TAMCs): inhibition; also recorded: inhibited
estrogen signalling (TAMCs; IPA, TAMCs): downregulated
global reprogramming of TAMCs / immunosuppressive pathways (TAMCs; IPA, TAMCs): major reprogramming of intracellular pathways; also recorded: reprograms the immunosuppressive properties of TAMCs; also recorded: major global reprogramming of TAMCs by deactivating immunosuppressive pathways
insulin signalling (TAMCs; IPA, TAMCs): downregulated
pathways regulating lipid metabolism (Sirtuin, polyamines, PPAR-a/RXR-a) (TAMCs; IPA, TAMCs): altered
TREM1 (TAMCs; [2]): reduced
cyclic adenosine monophosphate (cAMP) pathway (TAMCs; [2]): down-regulated
proteomic profile (TAMCs; oleuropein-treated vs untreated, FDR<1%): distinct proteomic profiles
